Laboratory results taken from patent publication US12409140B2, “Therapeutic formulations and uses thereof” (Bionomics Limited, priority 2019, dated 2025).

Key:
[1] = Biorelevant dissolution testing (solubility/precipitation): SGF (0.1N HCl) then transfer to SIF (FaSSIF); assay type: physicochemical; details: for Total Drug CmaxGB: SGF (0.1N HCl, pH=1), 0-30 min, equivalent to 2.0 mg/mL of compound I in 50 mL; for Total Drug AUC 35-210 FaSSIF / Total Drug C210: SIF/FaSSIF; for Total Drug AUC 35-210 FaSSIF: 35-210 min; for Total Drug C210: 210 min; for Total Drug CmaxFaSSIF: after transfer at 30 min into 50 mL SIF (2.24 mg/mL FaSSIF in 100 mM PBS)
Procedure: Appropriate amounts (equivalent to 2.0 mg/mL of compound I) of composition of invention were added to 50 mL of 0.1N HCl and stirred. The aliquots of mixture were withdrawn at 10 and 25 minutes, vortexed for 10 seconds and the dissolved amount was measure by analytical HPLC using external reference standards at a wavelength of 240 nm. After 30 minutes, the entire content of sample from SGF incubation was transferred into 50 mL of SIF media with stirring, and the dissolved amount was measured at 35, 50, 75, 120 and 210 minutes.

[2] = Solubility of Compound I (preformulation, stated in words); assay type: physicochemical; details: b16: in vitro, crystalline form
[3] = Oral exposure of suspension formulations (preformulation studies); assay type: in vivo; details: increased with 0.5% HPMC, depends on fed/fasted state
[4] = Permeability of Compound I (stated in words); assay type: in vitro ADME

| Compound | Increase in AUC over API AUC ([1]; AUC 35-210 FaSSIF relative to BNC210 API) | Total Drug CmaxGB [1] [μgA/mL] | Total Drug AUC 35-210 FaSSIF [1] [min * μgA/mL] | Total Drug C210 [1] [μgA/mL] | Total Drug CmaxFaSSIF [1] [μgA/mL] | Solubility ([2]; listed as Compound I) | Solubility ([2]; listed as compound I) | Oral exposure [3] | Permeability [4] |
| --- | --- | --- | --- | --- | --- | --- | --- | --- | --- |
| CCn1cc(C(=O)N2CCOCC2)c(=O)c2cc(NC3Cc4ccccc4C3)cnc21 [100% BNC210 SD] | 2 | 158 | 8700 | 60 | 68 | – | – | – | – |
| CCn1cc(C(=O)N2CCOCC2)c(=O)c2cc(NC3Cc4ccccc4C3)cnc21 [BNC210 API] | – | 88 | 4300 | 29 | 32 | poorly soluble | poor in vitro solubility | low oral exposure | moderate permeability |
